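96-well plates; 48 h exposure; 5 concentrations. Endpoints by linear interpolation between flanking doses. Not reached: highest tested concentration assigned. GI50 = concentration required for 50% inhibition of growth.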 Calls of active or inactive are those of the source. Rule as the data show it: active = GI50 up to about 1.1 µM and inactive = higher.
How the values were obtained:
Experiment in all cases: growth of human tumour cells (NCI), 48 h
[1] = system: SF-268
[2] = system: NCI-H460
[3] = system: SK-OV-3
[4] = system: HOP-92
[5] = system: T47D
[6] = system: HCT-15
[7] = system: ACHN
[8] = system: PC-3
[9] = system: U-251
[10] = system: OVCAR-8
[11] = system: SF-539
[12] = system: SW-620
[13] = system: MCF7
[14] = system: KM12
[15] = system: NCI/ADR-RES
[16] = system: NCI-H23
[17] = system: TK-10
[18] = system: RXF 393
[19] = system: DU-145

Row | Compound | GI50 [1] | GI50 [2] | GI50 [3] | GI50 [4] | GI50 [5] | GI50 [6] | GI50 [7] | GI50 [8] | GI50 [9] | GI50 [10] | GI50 [11] | GI50 [12] | GI50 [13] | GI50 [14] | GI50 [15] | GI50 [16] | GI50 [17] | GI50 [18] | GI50 [19]
1 | COC(=O)C(/C(=N/N)C(=O)Nc1cccc(O)c1)c1nc2ccccc2nc1O (configuration not stated) | > 100 µM (inactive) | > 100 µM (inactive) | > 100 µM (inactive) | > 100 µM (inactive) | > 100 µM (inactive) | > 100 µM | > 100 µM (inactive) | > 100 µM (inactive) | > 100 µM (inactive) | > 100 µM (inactive) | > 100 µM (inactive) | > 100 µM (inactive) | > 100 µM (inactive) | > 100 µM (inactive) | > 100 µM (inactive) | > 100 µM (inactive) | > 100 µM (inactive) | > 100 µM (inactive) | 
2 | Cc1c2c(n(CCc3ccc(Cl)cc3)c1C)NN=C(C#N)S2(=O)=O | 48.5 µM (inactive) | > 100 µM (inactive) | > 100 µM (inactive) |  | > 100 µM (inactive) | > 100 µM | > 100 µM (inactive) | > 100 µM (inactive) | > 100 µM (inactive) |  | > 100 µM (inactive) | > 100 µM (inactive) | > 100 µM (inactive) | > 100 µM (inactive) | 61.9 µM (inactive) | > 100 µM (inactive) | > 100 µM (inactive) |  | > 100 µM (inactive)
3 | Nc1nc(=O)[nH]c2c1cnn2C1CCCCO1 (configuration not stated) | > 100 µM (inactive) | > 100 µM (inactive) |  | > 100 µM (inactive) |  | > 100 µM | > 100 µM (inactive) |  | > 100 µM (inactive) | > 100 µM (inactive) | > 100 µM (inactive) | > 100 µM (inactive) |  | > 100 µM (inactive) |  | > 100 µM (inactive) | > 100 µM (inactive) | 56 µM (inactive) | 
4 | CCN(CC)Cc1ccc(C(=S)Nc2ccc(Cl)cc2)s1 | 11.3 µM (inactive) | 11.9 µM (inactive) | 15.2 µM (inactive) |  | 11.2 µM (inactive) | 10.7 µM | 14.2 µM (inactive) | 13.2 µM (inactive) | 12 µM (inactive) | 3.75 µM (inactive) | 13.9 µM (inactive) | 12.2 µM (inactive) | 11 µM (inactive) | 11.9 µM (inactive) | 7.45 µM (inactive) | 2.34 µM (inactive) |  |  | 15 µM (inactive)
5 | COc1cc(C(=O)Nc2cc(C(N)=O)cc(OC)c2OC)cc(NC(=O)/C=C/c2ccccc2)c1OC |  | 66.4 µM (inactive) | > 100 µM (inactive) | 5.11 µM (inactive) |  | > 100 µM | > 100 µM (inactive) | > 100 µM (inactive) |  | > 100 µM (inactive) | > 100 µM (inactive) | > 100 µM (inactive) | > 100 µM (inactive) | > 100 µM (inactive) | > 100 µM (inactive) | > 100 µM (inactive) | > 100 µM (inactive) | > 100 µM (inactive) | > 100 µM (inactive)
6 | C/C(CCn1[nH]c(=O)ccc1=O)=N\NC(=O)C(=O)NN | > 100 µM (inactive) | > 100 µM (inactive) | > 100 µM (inactive) |  |  | > 100 µM | > 100 µM (inactive) |  |  | > 100 µM (inactive) | > 100 µM (inactive) | > 100 µM (inactive) |  | > 100 µM (inactive) |  | > 100 µM (inactive) | > 100 µM (inactive) | > 100 µM (inactive) | 
7 | COc1ccc2c(c1)[n+]([O-])c(C#N)c(N1CCN(c3ccc([N+](=O)[O-])cc3)CC1)[n+]2[O-] | 2.91 µM (inactive) | 3.63 µM (inactive) | 8.09 µM (inactive) |  | 2.01 µM (inactive) | 3.16 µM | 2.7 µM (inactive) | 3.34 µM (inactive) | 2.41 µM (inactive) | 2.09 µM (inactive) | 2.21 µM (inactive) | 5.55 µM (inactive) |  | 6.87 µM (inactive) | 2.45 µM (inactive) | 3.23 µM (inactive) | 9.68 µM (inactive) | 6.89 µM (inactive) | 8.22 µM (inactive)
8 | CC(C)=CC(=O)Cc1nc2ccccc2[nH]c1=O | > 100 µM (inactive) | > 100 µM (inactive) | > 100 µM (inactive) | 22.4 µM (inactive) |  | > 100 µM | > 100 µM (inactive) |  | > 100 µM (inactive) |  | > 100 µM (inactive) | > 100 µM (inactive) |  | > 100 µM (inactive) |  | > 100 µM (inactive) | > 100 µM (inactive) | 18.4 µM (inactive) | 
9 | NNC1=N/C(=C\c2ccccc2O)C(=O)N1 | 31 µM (inactive) | 20.2 µM (inactive) | 31.7 µM (inactive) | > 100 µM (inactive) | 38.5 µM (inactive) | 6.31 µM | 30.9 µM (inactive) | 49.2 µM (inactive) | 33.3 µM (inactive) | 27.6 µM (inactive) | 25.4 µM (inactive) | 47.1 µM (inactive) |  | 35.5 µM (inactive) | 35.8 µM (inactive) | 53.6 µM (inactive) | 60.1 µM (inactive) | 49.3 µM (inactive) | 34.9 µM (inactive)
10 | CCCCc1ccc(Nc2nc(N)c3ncn(COCCO)c3n2)cc1 | 33 µM (inactive) |  | 11.2 µM (inactive) | 18.2 µM (inactive) | 24.4 µM (inactive) | 19.3 µM | 18 µM (inactive) |  | 22.1 µM (inactive) | 25.9 µM (inactive) | 28.2 µM (inactive) | 26.1 µM (inactive) | 37.4 µM (inactive) | 32.8 µM (inactive) | 20.9 µM (inactive) | 21.3 µM (inactive) | 52.6 µM (inactive) | 30.1 µM (inactive) | 37.7 µM (inactive)
11 | CC1(C)OC2OC(COC(=O)C=[N+]=[N-])C3OC(C)(C)OC3C2O1 (configuration not stated) | > 100 µM (inactive) | > 100 µM (inactive) | > 100 µM (inactive) | > 100 µM (inactive) |  | > 100 µM | > 100 µM (inactive) | > 100 µM (inactive) | > 100 µM (inactive) |  |  | > 100 µM (inactive) | > 100 µM (inactive) | > 100 µM (inactive) |  | > 100 µM (inactive) | > 100 µM (inactive) | > 100 µM (inactive) | > 100 µM (inactive)
12 | CCCCn1cnnc1NS(=O)(=O)c1cc(C)c(Cl)cc1SCC(=O)O | > 10 µM (inactive) | > 10 µM (inactive) | > 10 µM (inactive) |  | > 10 µM (inactive) | > 10 µM | > 10 µM (inactive) | > 10 µM (inactive) | > 10 µM (inactive) | > 10 µM (inactive) | > 10 µM (inactive) | > 10 µM (inactive) |  | > 10 µM (inactive) | > 10 µM (inactive) | > 10 µM (inactive) | > 10 µM (inactive) | > 10 µM (inactive) | > 10 µM (inactive)
13 | O=Nc1c(-c2c(O)[nH]c3ccc(I)cc23)[nH]c2ccccc12 | 4.42 µM (inactive) | 3.7 µM (inactive) | 2.42 µM (inactive) | > 20.2 µM (inactive) |  | 3.21 µM | 2.53 µM (inactive) | 3.37 µM (inactive) | 5.62 µM (inactive) | 4.95 µM (inactive) | 7.03 µM (inactive) |  | 2.41 µM (inactive) | 0.282 µM (active) | 8.2 µM (inactive) | 4.58 µM (inactive) | 5.38 µM (inactive) | 2.36 µM (inactive) | 3.35 µM (inactive)
14 | CCOC(=O)CC1c2ccc(O)cc2OC(=O)C1c1ccc(N)cc1 (configuration not stated) | 98.4 µM (inactive) | > 100 µM (inactive) | > 100 µM (inactive) |  |  | > 100 µM | > 100 µM (inactive) | > 100 µM (inactive) | > 100 µM (inactive) | 95.9 µM (inactive) | 56.6 µM (inactive) | > 100 µM (inactive) | > 100 µM (inactive) | > 100 µM (inactive) | > 100 µM (inactive) | > 100 µM (inactive) | > 100 µM (inactive) | > 100 µM (inactive) | > 100 µM (inactive)
15 | c1ccc(/N=C2\C(=N/c3ccccc3)N(C3CCCCC3)/C(=N\C3CCCCC3)N2c2ccccc2)cc1 |  | > 100 µM (inactive) |  | > 100 µM (inactive) | 49.9 µM (inactive) | > 100 µM | > 100 µM (inactive) | > 100 µM (inactive) | > 100 µM (inactive) | > 100 µM (inactive) |  | > 100 µM (inactive) | > 100 µM (inactive) | > 100 µM (inactive) |  | > 100 µM (inactive) | > 100 µM (inactive) | > 100 µM (inactive) | 
16 | CC(=O)OCCN(C1=NCCN1)/[N+](C=c1ccc(=C=[N-])cc1)=C/c1ccc(C#N)cc1 | > 100 µM (inactive) | > 100 µM (inactive) | > 100 µM (inactive) |  | > 100 µM (inactive) | > 100 µM | > 100 µM (inactive) | > 100 µM (inactive) | > 100 µM (inactive) | > 100 µM (inactive) | > 100 µM (inactive) | > 100 µM (inactive) | > 100 µM (inactive) | > 100 µM (inactive) | 94.6 µM (inactive) | > 100 µM (inactive) | > 100 µM (inactive) | > 100 µM (inactive) | 
17 | COc1cccc(/C=N/n2c(-c3ccccc3)n[nH]c2=O)c1 | 17.5 µM (inactive) | 42.2 µM (inactive) | 44.2 µM (inactive) |  | 27.5 µM (inactive) | > 100 µM | > 100 µM (inactive) | > 100 µM (inactive) | 34.5 µM (inactive) | 29.8 µM (inactive) | 28.1 µM (inactive) | > 100 µM (inactive) | 75.5 µM (inactive) | 85.5 µM (inactive) | 39.4 µM (inactive) | 27.3 µM (inactive) |  |  | 49.5 µM (inactive)
18 | Cc1cc(-c2ccc(C(=O)C(Cl)(Cl)Cl)[nH]2)on1 | 36.9 µM (inactive) | 10.2 µM (inactive) | 60 µM (inactive) | 51.5 µM (inactive) | 52.2 µM (inactive) | 28 µM | 27.9 µM (inactive) | 29.9 µM (inactive) | 15.4 µM (inactive) | 32.7 µM (inactive) | 15.3 µM (inactive) | 50.6 µM (inactive) |  | 12.2 µM (inactive) | 29.3 µM (inactive) | 23.8 µM (inactive) | 27.4 µM (inactive) | 17.1 µM (inactive) | 16.1 µM (inactive)

Reference: ChEMBL document CHEMBL1201862, “PubChem BioAssay data set” (2004)
